Assay results from patent publication US10035800B2 (AbbVie Inc., priority 2013, dated 2018).
Where two headings read alike, the source gives them in different places.

Key:
[1] = system: IL-6 (Interleukin-6) production; experiment: LPS (lipopolysaccharide) induced IL-6 production mouse assay; format: in vivo, mice; settings: oral administration 1 h before LPS 2.5 mg/kg ip, serum 2 h after LPS, p < 0.05 vs vehicle
Procedure: LPS (Lipopolysaccharide) Induced IL-6 Production Mouse Assay
Compounds of the Examples listed in Table 2 were assayed for their ability to inhibit LPS (lipopolysaccharide) induced IL-6 (Interleukin-6) production in mice. Fox Chase SCID® female mice (Charles Rivers Labs, 5 per group) or CD1 female mice (5 per group) received an intraperitoneal challenge of lipopolysaccharide (2.5 mg/kg, L2630 E. coli 0111:B4) one hour after oral administration of compounds. Mice were euthanized 2 hours after lipopolysaccharide injection, blood was removed by cardiac puncture, and then the serum harvested from the blood samples was frozen at −80° C. On the day of the assay the serum samples were brought to room temperature and then diluted 1:20 in phosphate-buffered saline containing 2% bovine serum albumin. Interleukin-6 measurements were performed using a cytokine assay from Meso Scale Discovery (Gaithersburg, Md.) for mouse serum analysis according to the manufacturer's protocol and read on a SECTOR Imager 6000 (Meso Scale Discovery, Gaithersburg, Md.) instrument. Statistical analysis was performed using Prism software (version 5.0) incorporating Dunnett's one way ANOVA. The IL-6 mean and standard deviation of the group of vehicle treated animals were compared with the IL-6 mean and standard deviation of the group treated with drug. A p value <0.05 means that there is less than a 5% probability that the mean values in the two groups are equal.

BRD4 (BDII_E352-M457) = target: T1, BRD4 (BDII_E352-M457) (Homo sapiens, UniProt O60885); experiment: TR-FRET bromodomain binding assay, second bromodomain of BRD4; settings: 30 nM probe
T1 construct: protocol; made in house
In short: (§1)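 Probe displacement by TR-FRET: 8 nM His-BRD4 bromodomain, 1 nM Eu-anti-His, Alexa647 BET-inhibitor probe at 100 nM (BDI) or 30 nM (BDII); 20 mM Na phosphate pH 6.0, 2% DMSO; 1 h RT. Ex 340, Em 495/520. IC50 from 4PL fit; Ki from IC50, probe Kd and probe concentration.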

BRD4 (BDI_K57-E168) = target: T2, BRD4 (BDI_K57-E168) (Homo sapiens, UniProt O60885); experiment: TR-FRET bromodomain binding assay, first bromodomain of BRD4; settings: 100 nM probe
T2 construct: BD1: amino acids K57-E168; made in house
In short: as §1

[2] = system: breast cancer cell line MX-1; experiment: MX-1 cell line proliferation assay; format: cell-based; settings: MX-1 cells, 3-day proliferation assay, Cell Titer Glo, read-out: Cellular proliferation: EC50
In short: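 MX-1 cells at 5000/well, in RPMI 1640 with 10% FBS, were exposed to compounds for 3 days. Final concentrations ranged 3 μM–0.1 nM or 1 μM–0.03 nM, in 3-fold steps. Cell Titer Glo luminescence was normalized to DMSO and fitted sigmoidally for EC50; overall MSR 2.1.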

[3] = TR-FRET assay protocol E (compound 9.19 μM-150 pM)
[4] = TR-FRET assay protocol G (compound 0.92 μM-15 pM)
[5] = TR-FRET assay protocol B (compound 49.02 μM-15.63 nM)

| SMILES | Ki (BRD4 (BDII_E352-M457); [3]) [nM] | Ki (BRD4 (BDI_K57-E168); [3]) [nM] | EC50 [2] [nM] | Ki (BRD4 (BDII_E352-M457); [4]) [nM] | Ki (BRD4 (BDI_K57-E168); [4]) [nM] | Ki (BRD4 (BDII_E352-M457); [5]) [nM] | Ki (BRD4 (BDI_K57-E168); [5]) [nM] | EC50 ([2]; Homo sapiens, MX1, 72 h) [nM] | % inhibition of LPS induced IL-6 production ([1]; mouse strain SCID) [%] | % inhibition of LPS induced IL-6 production ([1]; mouse strain CD1) [%] |
| --- | --- | --- | --- | --- | --- | --- | --- | --- | --- | --- |
| COCCC1c2c[nH]c3c(=O)n(C)cc(c23)-c2cc(CS(C)(=O)=O)ccc2N1CC1CC1 (racemic) [Example 15, 4-(cyclopropylmethyl)-3-(2-methoxyethyl)-10-methyl-7-((methylsulfonyl)methyl)-3,4-dihydro-1H-1,4,10-triazadibenzo[cd,f]azulen-11(10H)-one] | 0.631 | 5.22 | 8.75 | – | – | – | – | – | 68 | – |
| CCOC(=O)C1c2c[nH]c3c(=O)n(C)cc(c23)-c2cc(CS(C)(=O)=O)ccc2N1CC1CC1 (centres unmarked) [Example 7, ethyl 4-(cyclopropylmethyl)-10-methyl-7-((methylsulfonyl)methyl)-11-oxo-3,4,10,11-tetrahydro-1H-1,4,10-triazadibenzo[cd,f]azulene-3-carboxylate] | – | – | 14.5 | – | – | 26.7 | 51.1 | – | 53 | – |
| Cn1cc2c3c(c[nH]c3c1=O)CN(c1ccc(F)cc1)c1ccc(S(C)(=O)=O)cc1-2 [Example 8, 4-(4-fluorophenyl)-10-methyl-7-(methylsulfonyl)-3,4-dihydro-1H-1,4,10-triazadibenzo[cd,f]azulen-11(10H)-one] | 3.77 | 0.646 | 5.68 | – | – | – | – | – | 53 | – |
| CCS(=O)(=O)Nc1cnc2c(c1)-c1cn(C)c(=O)c3[nH]cc(c13)CN2c1ccc(F)cc1F [Example 23, N-(4-(2,4-difluorophenyl)-10-methyl-11-oxo-3,4,10,11-tetrahydro-1H-1,4,5,10-tetraazadibenzo[cd,f]azulen-7-yl)ethanesulfonamide] | 0.783 | 1.7 | 7 | – | – | – | – | – | 54 | – |
| Cn1cc2c3c(c[nH]c3c1=O)CN(CC1CCOC1)c1ccc(CS(C)(=O)=O)cc1-2 (centres unmarked) [Example 26] | – | – | 1.03 | 0.719 | 0.701 | – | – | – | 88 | – |
| [2H]C1([2H])c2c[nH]c3c(=O)n(C)cc(c23)-c2cc(CS(C)(=O)=O)ccc2N1c1ccc(F)cc1 [Example 31, 4-(4-fluorophenyl)-(3,3-^2H2)-10-methyl-7-((methylsulfonyl)methyl)-3,4-dihydro-1H-1,4,10-triazadibenzo[cd,f]azulen-11(10H)-one] | – | – | – | 1.18 | 1.67 | – | – | 0.752 | 83 | – |
| Cn1cc2c3c(c(C(N)=O)[nH]c3c1=O)CN(c1ccc(Cl)cc1)c1ccc(CS(C)(=O)=O)cc1-2 [Example 58, 4-(4-chlorophenyl)-10-methyl-7-((methylsulfonyl)methyl)-11-oxo-3,4,10,11-tetrahydro-1H-1,4,10-triazadibenzo[cd,f]azulene-2-carboxamide] | – | – | 5.38 | 0.617 | 2.02 | – | – | – | – | 39 |
| CN1CCN(C(=O)c2[nH]c3c(=O)n(C)cc4c3c2CN(c2ccc(Cl)cc2)c2ccc(CS(C)(=O)=O)cc2-4)CC1 [Example 60, 4-(4-chlorophenyl)-10-methyl-2-(4-methylpiperazine-1-carbonyl)-7-((methylsulfonyl)methyl)-3,4-dihydro-1H-1,4,10-triazadibenzo[cd,f]azulen-11(10H)-one] | – | – | 115 | 33.1 | 2.55 | – | – | – | – | 44 |
| Cn1cc2c3c(c[nH]c3c1=O)CN(C1CCOCC1)c1ccc(CS(C)(=O)=O)cc1-2 [Example 151, 10-methyl-7-((methylsulfonyl)methyl)-4-(tetrahydro-2H-pyran-4-yl)-3,4-dihydro-1H-1,4,10-triazadibenzo[cd,f]azulen-11(10H)-one] | – | – | 4.26 | 2.3 | 1.14 | – | – | – | – | 57 |
| Cn1cc2c3c(c[nH]c3c1=O)CN(CCC1CCOCC1)c1ccc(CS(C)(=O)=O)cc1-2 [Example 191, 10-methyl-7-((methylsulfonyl)methyl)-4-(2-(tetrahydro-2H-pyran-4-yl)ethyl)-3,4-dihydro-1H-1,4,10-triazadibenzo[cd,f]azulen-11(10H)-one] | – | – | 10.7 | 3.38 | 1 | – | – | – | – | 60 |

Further lines, with some results ahead:

| Ki (BRD4 (BDII_E352-M457); [3]) [nM] | Ki (BRD4 (BDI_K57-E168); [3]) [nM] | EC50 [2] [nM] | Ki (BRD4 (BDII_E352-M457); [4]) [nM] | Ki (BRD4 (BDI_K57-E168); [4]) [nM] | Ki (BRD4 (BDII_E352-M457); [5]) [nM] | Ki (BRD4 (BDI_K57-E168); [5]) [nM] | EC50 ([2]; Homo sapiens, MX1, 72 h) [nM] | SMILES | % inhibition of LPS induced IL-6 production ([1]; mouse strain SCID) [%] | % inhibition of LPS induced IL-6 production ([1]; mouse strain CD1) [%] |
| --- | --- | --- | --- | --- | --- | --- | --- | --- | --- | --- |
| – | – | 1.08 | 2 | 1.31 | – | – | – | Cn1cc2c3c(c[nH]c3c1=O)CN(C1CCCOC1)c1ccc(CS(C)(=O)=O)cc1-2 (racemic) [Example 182, 10-methyl-7-((methylsulfonyl)methyl)-4-(tetrahydro-2H-pyran-3-yl)-3,4-dihydro-1H-1,4,10-triazadibenzo[cd,f]azulen-11(10H)-one] | – | 77 |
| 0.801 | 0.963 | 1.07 | – | – | – | – | – | CCCCN1Cc2c[nH]c3c(=O)n(C)cc(c23)-c2cc(CS(C)(=O)=O)ccc21 [Example 24, 4-butyl-10-methyl-7-((methylsulfonyl)methyl)-3,4-dihydro-1H-1,4,10-triazadibenzo[cd,f]azulen-11(10H)-one] | 78 | – |
| 1.36 | 4.98 | 1.39 | – | – | – | – | – | Cn1cc2c3c(c[nH]c3c1=O)CN(C1CCC(F)(F)CC1)c1ccc(CS(C)(=O)=O)cc1-2 [Example 30, 4-(4,4-difluorocyclohexyl)-10-methyl-7-((methylsulfonyl)methyl)-3,4-dihydro-1H-1,4,10-triazadibenzo[cd,f]azulen-11(10H)-one] | 81 | – |
| – | – | 3.8 | 0.972 | 3.1 | – | – | – | CCNC(=O)c1[nH]c2c(=O)n(C)cc3c2c1CN(c1ccc(Cl)cc1)c1ccc(CS(C)(=O)=O)cc1-3 [Example 59, 4-(4-chlorophenyl)-N-ethyl-10-methyl-7-((methylsulfonyl)methyl)-11-oxo-3,4,10,11-tetrahydro-1H-1,4,10-triazadibenzo[cd,f]azulene-2-carboxamide] | – | 68 |
| – | – | 1.93 | 0.82 | 1.78 | – | – | – | CC(C)CN1Cc2c[nH]c3c(=O)n(C)cc(c23)-c2cc(CS(C)(=O)=O)ccc21 [Example 149, 4-isobutyl-10-methyl-7-((methylsulfonyl)methyl)-3,4-dihydro-1H-1,4,10-triazadibenzo[cd,f]azulen-11(10H)-one] | – | 86 |
| – | – | 1.25 | 1.08 | 1.65 | – | – | – | Cn1cc2c3c(c[nH]c3c1=O)CN(c1ccc(C#N)cc1)c1ccc(CS(C)(=O)=O)cc1-2 [Example 192, 4-(10-methyl-7-((methylsulfonyl)methyl)-11-oxo-10,11-dihydro-1H-1,4,10-triazadibenzo[cd,f]azulen-4(3H)-yl)benzonitrile] | – | 73 |
| – | – | 3.77 | 0.62 | 2.66 | – | – | – | Cn1cc2c3c(c[nH]c3c1=O)CN(c1ccc(F)cc1F)c1c-2cc(CS(C)(=O)=O)cc1C1CC1 [Example 195, 5-cyclopropyl-4-(2,4-difluorophenyl)-10-methyl-7-((methylsulfonyl)methyl)-3,4-dihydro-1H-1,4,10-triazadibenzo[cd,f]azulen-11(10H)-one] | – | 85 |
